Legend:
[1] = target: T1, Sigma intracellular receptor 2 (Homo sapiens, UniProt Q5BJF2); test: GPCRScan assay: inhibition of Sigma 2; set-up: radioligand conc. used [nm] 5.0, parental cells HEKT
[2] = target: Serine/threonine-protein kinase BRSK1 (Homo sapiens) (UniProt Q8TDC3); conditions: Compound concentration 1000.0 nM
[3] = target: Tyrosine-protein kinase Fgr (Homo sapiens) (UniProt P09769); conditions: Compound concentration 1000.0 nM
[4] = target: Serine/threonine-protein kinase MRCK beta (Homo sapiens) (UniProt Q9Y5S2); conditions: Compound concentration 1000.0 nM
[5] = target: Delta-type opioid receptor (Homo sapiens) (UniProt P41143); conditions: Compound concentration 10.0 uM
[6] = target: Adenosine receptor A1 (Homo sapiens) (UniProt P30542); test: A1/HU Eurofins-Panlabs selectivity data (BI); conditions: Compound concentration 10.0 uM
[7] = target: T2, Alpha-1A adrenergic receptor (Homo sapiens) (UniProt P35348); test: ALPHA1A/R Eurofins-Panlabs selectivity data (BI); conditions: Rattus norvegicus; Compound concentration 10.0 uM
T2 sequence (whole entry): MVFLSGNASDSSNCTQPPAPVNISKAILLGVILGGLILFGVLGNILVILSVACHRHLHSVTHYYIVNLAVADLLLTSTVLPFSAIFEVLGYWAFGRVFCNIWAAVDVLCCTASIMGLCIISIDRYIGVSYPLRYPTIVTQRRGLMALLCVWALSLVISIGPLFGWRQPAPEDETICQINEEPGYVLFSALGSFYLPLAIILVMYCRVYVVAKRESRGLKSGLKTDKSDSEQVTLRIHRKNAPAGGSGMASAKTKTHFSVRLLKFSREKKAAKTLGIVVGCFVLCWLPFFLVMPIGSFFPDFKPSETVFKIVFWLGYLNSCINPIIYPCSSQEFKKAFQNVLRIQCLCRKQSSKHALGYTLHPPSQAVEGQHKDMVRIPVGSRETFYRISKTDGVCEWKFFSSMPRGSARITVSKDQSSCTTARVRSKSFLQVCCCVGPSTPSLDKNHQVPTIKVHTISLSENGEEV

[8] = target: T3, Alpha-1B adrenergic receptor (Homo sapiens) (UniProt P35368); test: ALPHA1B/R Eurofins-Panlabs selectivity data (BI); conditions: Rattus norvegicus; Compound concentration 10.0 uM
T3 sequence (whole entry): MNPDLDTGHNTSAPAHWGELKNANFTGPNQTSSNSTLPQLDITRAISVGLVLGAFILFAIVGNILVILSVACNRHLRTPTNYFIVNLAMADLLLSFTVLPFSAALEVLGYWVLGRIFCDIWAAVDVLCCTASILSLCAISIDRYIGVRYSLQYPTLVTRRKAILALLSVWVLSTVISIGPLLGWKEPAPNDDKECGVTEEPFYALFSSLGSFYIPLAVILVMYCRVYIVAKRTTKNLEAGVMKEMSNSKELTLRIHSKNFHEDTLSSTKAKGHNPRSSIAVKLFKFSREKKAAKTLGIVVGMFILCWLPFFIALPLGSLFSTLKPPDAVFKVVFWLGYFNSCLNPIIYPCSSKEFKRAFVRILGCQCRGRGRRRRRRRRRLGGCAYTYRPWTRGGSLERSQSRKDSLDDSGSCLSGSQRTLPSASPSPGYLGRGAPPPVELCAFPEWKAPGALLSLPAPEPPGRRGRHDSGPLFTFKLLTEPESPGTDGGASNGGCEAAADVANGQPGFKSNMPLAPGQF

[9] = target: Beta-2 adrenergic receptor (Homo sapiens) (UniProt P07550); test: BETA2/HU Eurofins-Panlabs selectivity data (BI); conditions: Compound concentration 10.0 uM
[10] = target: Voltage-dependent L-type calcium channel subunit alpha-1C (DHP site) (Rattus norvegicus, UniProt P22002); test: CA+/DHPSI/RA Eurofins-Panlabs selectivity data (BI); conditions: compound concentration 10 uM, read-out: % Ctrl
[11] = target: D(1A) dopamine receptor (Homo sapiens) (UniProt P21728); test: D1/HU Eurofins-Panlabs selectivity data (BI); conditions: Compound concentration 10.0 uM
[12] = target: Gamma-aminobutyric acid receptor subunit alpha-1 (Rattus norvegicus) (UniProt P62813); test: GABAACENTR Eurofins-Panlabs selectivity data (BI); conditions: Compound concentration 10.0 uM
[13] = target: Histamine H1 receptor (Homo sapiens) (UniProt P35367); test: H1/H Eurofins-Panlabs selectivity data (BI); conditions: Compound concentration 10.0 uM
[14] = target: hERG (KCNH2) potassium channel (Homo sapiens, UniProt Q12809); test: K+/HERG Eurofins-Panlabs selectivity data (BI); conditions: compound concentration 10 uM, read-out: % Ctrl
[15] = target: T4, Muscarinic acetylcholine receptor M2 (Homo sapiens) (UniProt P08172); test: M2/HU Eurofins-Panlabs selectivity data (BI); conditions: Compound concentration 10.0 uM
T4 sequence (whole entry): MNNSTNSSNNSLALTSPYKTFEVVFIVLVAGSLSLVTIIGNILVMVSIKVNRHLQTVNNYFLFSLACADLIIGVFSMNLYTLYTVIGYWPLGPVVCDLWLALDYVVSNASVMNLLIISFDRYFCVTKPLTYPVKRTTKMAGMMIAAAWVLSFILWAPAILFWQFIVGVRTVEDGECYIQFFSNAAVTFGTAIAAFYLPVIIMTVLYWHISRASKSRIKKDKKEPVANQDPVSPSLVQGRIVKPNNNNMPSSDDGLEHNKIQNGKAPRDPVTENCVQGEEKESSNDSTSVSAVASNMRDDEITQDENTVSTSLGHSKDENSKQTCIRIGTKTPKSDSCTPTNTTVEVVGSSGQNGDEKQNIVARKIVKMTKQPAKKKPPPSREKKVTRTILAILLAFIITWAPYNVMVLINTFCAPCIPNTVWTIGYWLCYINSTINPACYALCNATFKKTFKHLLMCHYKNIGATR

[16] = target: Acetylcholine receptor subunit alpha (Homo sapiens) (UniProt P02708); test: NACH/H Eurofins-Panlabs selectivity data (BI); conditions: Compound concentration 10.0 uM
[17] = target: Sodium-dependent noradrenaline transporter (Homo sapiens) (UniProt P23975); test: NETRANS/H Eurofins-Panlabs selectivity data (BI); conditions: Compound concentration 10.0 uM
[18] = target: Glutamate receptor ionotropic, NMDA 2A (Rattus norvegicus) (UniProt Q00959); test: NMDAPHSI/R Eurofins-Panlabs selectivity data (BI); conditions: Compound concentration 10.0 uM
[19] = target: 3',5'-cyclic-AMP phosphodiesterase 4A (Rattus norvegicus) (UniProt P54748); test: ROLIPRAM/R Eurofins-Panlabs selectivity data (BI); conditions: Compound concentration 10.0 uM
[20] = target: Sigma non-opioid intracellular receptor 1 (Homo sapiens) (UniProt Q99720); test: SIGMA1/HU Eurofins-Panlabs selectivity data (BI); conditions: Compound concentration 10.0 uM
[21] = target: T1, Sigma intracellular receptor 2; test: SIGMA2/R Eurofins-Panlabs selectivity data (BI); conditions: Rattus norvegicus; Compound concentration 10.0 uM
[22] = target: Dual specificity mitogen-activated protein kinase kinase 5 (Homo sapiens) (UniProt Q13163); conditions: Compound concentration 1000.0 nM
[23] = target: 5-hydroxytryptamine receptor 1B (Homo sapiens) (UniProt P28222); conditions: Compound concentration 10.0 uM
[24] = target: Histamine H2 receptor (Homo sapiens) (UniProt P25021); conditions: Compound concentration 10.0 uM
[25] = target: Muscarinic acetylcholine receptor M1 (Homo sapiens) (UniProt P11229); conditions: Compound concentration 10.0 uM
[26] = target: Alpha-1D adrenergic receptor (Homo sapiens) (UniProt P25100); conditions: Compound concentration 10.0 uM

T1 sequence (Q5BJF2 whole entry): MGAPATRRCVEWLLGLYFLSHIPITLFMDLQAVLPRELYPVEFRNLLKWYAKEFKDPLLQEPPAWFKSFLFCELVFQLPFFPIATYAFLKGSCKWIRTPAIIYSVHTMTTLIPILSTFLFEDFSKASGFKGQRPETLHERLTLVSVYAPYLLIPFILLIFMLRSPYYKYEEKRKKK
Chain of Beta-2 adrenergic receptor (Homo sapiens) (P07550 whole entry, looked up): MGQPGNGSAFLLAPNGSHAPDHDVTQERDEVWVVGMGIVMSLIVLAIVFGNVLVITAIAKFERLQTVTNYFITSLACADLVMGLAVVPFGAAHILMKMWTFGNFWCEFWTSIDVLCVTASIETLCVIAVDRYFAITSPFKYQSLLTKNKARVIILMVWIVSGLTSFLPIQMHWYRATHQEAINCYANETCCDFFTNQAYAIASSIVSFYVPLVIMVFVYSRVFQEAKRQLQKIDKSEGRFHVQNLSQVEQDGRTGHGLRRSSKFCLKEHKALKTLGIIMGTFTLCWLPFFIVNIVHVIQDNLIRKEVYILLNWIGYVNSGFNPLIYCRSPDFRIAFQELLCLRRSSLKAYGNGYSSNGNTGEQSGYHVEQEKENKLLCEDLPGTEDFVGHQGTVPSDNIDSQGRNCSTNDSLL
Chain of Muscarinic acetylcholine receptor M1 (Homo sapiens) (P11229 whole entry): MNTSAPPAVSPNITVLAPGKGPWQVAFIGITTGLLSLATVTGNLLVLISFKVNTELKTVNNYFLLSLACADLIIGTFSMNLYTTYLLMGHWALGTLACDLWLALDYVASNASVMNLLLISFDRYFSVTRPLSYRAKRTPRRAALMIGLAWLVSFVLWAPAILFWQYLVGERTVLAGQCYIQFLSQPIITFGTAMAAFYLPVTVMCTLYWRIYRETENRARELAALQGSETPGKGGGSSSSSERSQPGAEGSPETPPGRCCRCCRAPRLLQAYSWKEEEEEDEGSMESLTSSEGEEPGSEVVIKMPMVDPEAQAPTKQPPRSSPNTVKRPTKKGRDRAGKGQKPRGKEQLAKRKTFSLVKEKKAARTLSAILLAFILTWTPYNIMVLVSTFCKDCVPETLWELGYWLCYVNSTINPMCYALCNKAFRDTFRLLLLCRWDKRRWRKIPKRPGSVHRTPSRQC
Chain of Delta-type opioid receptor (Homo sapiens) (P41143 whole entry): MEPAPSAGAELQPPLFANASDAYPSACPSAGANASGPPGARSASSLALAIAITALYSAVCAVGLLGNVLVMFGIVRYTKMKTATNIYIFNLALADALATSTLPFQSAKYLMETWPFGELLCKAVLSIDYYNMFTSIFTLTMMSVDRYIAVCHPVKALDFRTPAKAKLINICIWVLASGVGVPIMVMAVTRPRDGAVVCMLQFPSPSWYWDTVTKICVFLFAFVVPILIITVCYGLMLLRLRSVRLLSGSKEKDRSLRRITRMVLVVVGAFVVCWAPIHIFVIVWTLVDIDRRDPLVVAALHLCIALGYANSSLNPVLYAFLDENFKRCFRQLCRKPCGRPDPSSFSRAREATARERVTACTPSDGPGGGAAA
Chain of Histamine H2 receptor (Homo sapiens) (P25021 whole entry): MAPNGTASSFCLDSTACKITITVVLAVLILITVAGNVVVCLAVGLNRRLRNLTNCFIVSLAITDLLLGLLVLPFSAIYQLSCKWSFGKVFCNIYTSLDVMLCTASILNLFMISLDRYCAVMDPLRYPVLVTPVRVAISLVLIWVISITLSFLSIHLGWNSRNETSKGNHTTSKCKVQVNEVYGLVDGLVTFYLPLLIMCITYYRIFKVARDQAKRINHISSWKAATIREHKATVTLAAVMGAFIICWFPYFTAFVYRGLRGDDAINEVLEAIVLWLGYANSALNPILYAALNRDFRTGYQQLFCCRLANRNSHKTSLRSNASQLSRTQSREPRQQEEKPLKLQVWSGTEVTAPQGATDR
Chain of Histamine H1 receptor (Homo sapiens) (P35367 whole entry): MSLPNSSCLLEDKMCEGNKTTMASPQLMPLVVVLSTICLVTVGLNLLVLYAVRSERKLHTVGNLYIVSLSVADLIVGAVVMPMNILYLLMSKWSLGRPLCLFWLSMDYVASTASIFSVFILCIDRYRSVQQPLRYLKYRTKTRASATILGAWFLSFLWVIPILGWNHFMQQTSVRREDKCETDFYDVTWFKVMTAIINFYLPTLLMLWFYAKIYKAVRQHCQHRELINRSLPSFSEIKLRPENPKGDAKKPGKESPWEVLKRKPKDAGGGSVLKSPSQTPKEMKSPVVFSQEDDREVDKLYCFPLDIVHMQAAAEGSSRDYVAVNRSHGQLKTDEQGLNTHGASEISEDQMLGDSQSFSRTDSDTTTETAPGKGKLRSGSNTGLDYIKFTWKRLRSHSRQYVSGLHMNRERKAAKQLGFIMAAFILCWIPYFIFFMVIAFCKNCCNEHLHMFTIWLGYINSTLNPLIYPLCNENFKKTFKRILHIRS
Chain of Sodium-dependent noradrenaline transporter (Homo sapiens) (P23975 whole entry): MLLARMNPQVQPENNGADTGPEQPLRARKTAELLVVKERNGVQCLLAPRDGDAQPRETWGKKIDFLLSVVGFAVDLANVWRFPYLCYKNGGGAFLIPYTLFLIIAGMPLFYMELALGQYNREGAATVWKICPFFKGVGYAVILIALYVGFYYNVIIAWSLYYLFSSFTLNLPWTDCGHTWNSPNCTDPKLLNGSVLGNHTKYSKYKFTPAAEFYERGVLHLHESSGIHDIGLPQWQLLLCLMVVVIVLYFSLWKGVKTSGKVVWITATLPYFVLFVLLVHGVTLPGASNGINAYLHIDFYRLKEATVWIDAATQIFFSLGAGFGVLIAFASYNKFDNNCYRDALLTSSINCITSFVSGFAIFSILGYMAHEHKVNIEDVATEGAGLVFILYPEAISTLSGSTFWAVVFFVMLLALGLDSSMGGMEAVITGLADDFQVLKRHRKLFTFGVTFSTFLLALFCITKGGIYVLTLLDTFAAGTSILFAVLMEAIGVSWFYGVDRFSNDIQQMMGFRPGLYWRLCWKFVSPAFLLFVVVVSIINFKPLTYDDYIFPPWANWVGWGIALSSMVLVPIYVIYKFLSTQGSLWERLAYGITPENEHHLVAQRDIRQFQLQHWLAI
Chain of Serine/threonine-protein kinase BRSK1 (Homo sapiens) (Q8TDC3 whole entry): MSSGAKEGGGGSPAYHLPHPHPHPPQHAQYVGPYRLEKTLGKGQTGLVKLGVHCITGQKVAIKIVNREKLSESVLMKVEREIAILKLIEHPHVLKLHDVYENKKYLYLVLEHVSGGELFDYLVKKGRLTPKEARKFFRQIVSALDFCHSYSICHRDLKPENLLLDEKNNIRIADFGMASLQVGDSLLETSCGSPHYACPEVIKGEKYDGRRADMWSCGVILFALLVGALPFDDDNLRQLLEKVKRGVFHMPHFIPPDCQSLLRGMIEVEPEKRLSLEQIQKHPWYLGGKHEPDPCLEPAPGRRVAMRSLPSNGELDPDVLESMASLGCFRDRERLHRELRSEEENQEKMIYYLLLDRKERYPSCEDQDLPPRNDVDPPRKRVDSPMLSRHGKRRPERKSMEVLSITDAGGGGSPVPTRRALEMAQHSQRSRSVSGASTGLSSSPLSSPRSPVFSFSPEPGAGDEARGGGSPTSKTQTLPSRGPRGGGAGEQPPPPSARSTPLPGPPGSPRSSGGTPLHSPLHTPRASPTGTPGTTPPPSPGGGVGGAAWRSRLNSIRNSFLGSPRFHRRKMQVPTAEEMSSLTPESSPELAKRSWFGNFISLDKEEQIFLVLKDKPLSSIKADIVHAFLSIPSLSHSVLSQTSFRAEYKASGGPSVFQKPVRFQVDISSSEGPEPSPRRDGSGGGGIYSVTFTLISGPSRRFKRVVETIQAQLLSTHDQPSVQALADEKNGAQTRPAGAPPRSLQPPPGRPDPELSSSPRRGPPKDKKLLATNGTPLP
Chain of Sigma non-opioid intracellular receptor 1 (Homo sapiens) (Q99720 whole entry): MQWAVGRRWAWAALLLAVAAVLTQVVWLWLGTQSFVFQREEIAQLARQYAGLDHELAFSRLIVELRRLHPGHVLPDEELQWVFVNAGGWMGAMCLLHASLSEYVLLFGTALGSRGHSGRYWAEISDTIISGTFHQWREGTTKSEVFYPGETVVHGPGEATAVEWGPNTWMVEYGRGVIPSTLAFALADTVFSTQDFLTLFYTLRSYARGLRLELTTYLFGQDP
Chain of Tyrosine-protein kinase Fgr (Homo sapiens) (P09769 2-529 limits assumed): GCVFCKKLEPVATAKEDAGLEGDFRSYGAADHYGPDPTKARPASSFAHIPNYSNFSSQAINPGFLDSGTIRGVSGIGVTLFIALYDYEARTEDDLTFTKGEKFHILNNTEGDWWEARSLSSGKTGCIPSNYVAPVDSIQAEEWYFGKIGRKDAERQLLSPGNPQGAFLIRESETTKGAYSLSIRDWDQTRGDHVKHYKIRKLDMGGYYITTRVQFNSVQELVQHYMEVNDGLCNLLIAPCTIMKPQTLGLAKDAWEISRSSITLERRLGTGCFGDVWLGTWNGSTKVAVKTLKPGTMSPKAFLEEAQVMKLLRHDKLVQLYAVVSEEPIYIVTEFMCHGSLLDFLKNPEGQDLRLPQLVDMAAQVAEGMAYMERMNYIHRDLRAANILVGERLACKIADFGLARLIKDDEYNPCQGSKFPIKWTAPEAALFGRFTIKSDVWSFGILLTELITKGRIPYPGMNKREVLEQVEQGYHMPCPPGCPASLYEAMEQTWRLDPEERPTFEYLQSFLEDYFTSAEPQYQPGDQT
Chain of Adenosine receptor A1 (Homo sapiens) (P30542 whole entry): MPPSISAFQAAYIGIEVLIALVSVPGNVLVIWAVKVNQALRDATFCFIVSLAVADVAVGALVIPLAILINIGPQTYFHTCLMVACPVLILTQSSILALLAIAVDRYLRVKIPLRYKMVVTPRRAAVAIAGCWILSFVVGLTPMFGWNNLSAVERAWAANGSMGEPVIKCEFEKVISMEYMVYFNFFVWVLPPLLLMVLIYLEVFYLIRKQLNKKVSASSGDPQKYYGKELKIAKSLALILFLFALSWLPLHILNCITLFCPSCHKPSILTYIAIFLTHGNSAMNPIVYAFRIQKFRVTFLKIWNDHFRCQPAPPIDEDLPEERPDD

SMILES: CCC(=O)N[C@@H]1CC[C@H](C(=O)N(C)c2ccc(-c3nc4ccccc4o3)cc2)C1 [BI 99990]
- Ki [1]: 0.396 µM
- residual activity [2]: 100%
- residual activity [3]: 100%
- residual activity [4]: 100%
- inhibition [5]: -0.0188%

SMILES: CCC(=O)N[C@H]1CC[C@@H](C(=O)N(C)c2ccc(-c3nc4ccccc4o3)cc2)C1 [BI 99179]
- residual activity [6]: 107%
- residual activity [7]: 83%
- residual activity [8]: 96%
- residual activity [9]: 100%
- activity at 10 µM [10]: 93% (not active)
- residual activity [11]: 93%
- residual activity [12]: 92%
- residual activity [13]: 87%
- activity at 10 µM [14]: 105% (not active)
- residual activity [15]: 90%
- residual activity [16]: 113%
- residual activity [17]: 91%
- residual activity [18]: 101%
- residual activity [19]: 83%
- residual activity [20]: 102%
- residual activity [21]: 87%
- residual activity [22]: 16%
- inhibition [23]: 25.7%
- inhibition [24]: -1.25%
- inhibition [25]: 3.53%
- inhibition [26]: 50%
